Source: patent US6875770B2, “Indole derivative having heterocycle and mono- or diazaindole derivative” (Chugai Seiyaku Kabushiki Kaisha, priority 1998, dated 2005)

Assays:
[1] = molecular target: T1, Human COX-2 (Homo sapiens, UniProt P35354); test: Inhibitory activity against human COX-2 using peripheral blood (LPS-stimulated, thromboxane B2 EIA); type: cell-based; settings: LPS 10 μg/ml, 37° C. 5 hours
T1 construct: 500 μl of peripheral blood collected from a healthy volunteer; endogenous in cells; host or cells: human whole peripheral blood from a healthy volunteer, stimulated with LPS
T1 sequence (P35354 18-604): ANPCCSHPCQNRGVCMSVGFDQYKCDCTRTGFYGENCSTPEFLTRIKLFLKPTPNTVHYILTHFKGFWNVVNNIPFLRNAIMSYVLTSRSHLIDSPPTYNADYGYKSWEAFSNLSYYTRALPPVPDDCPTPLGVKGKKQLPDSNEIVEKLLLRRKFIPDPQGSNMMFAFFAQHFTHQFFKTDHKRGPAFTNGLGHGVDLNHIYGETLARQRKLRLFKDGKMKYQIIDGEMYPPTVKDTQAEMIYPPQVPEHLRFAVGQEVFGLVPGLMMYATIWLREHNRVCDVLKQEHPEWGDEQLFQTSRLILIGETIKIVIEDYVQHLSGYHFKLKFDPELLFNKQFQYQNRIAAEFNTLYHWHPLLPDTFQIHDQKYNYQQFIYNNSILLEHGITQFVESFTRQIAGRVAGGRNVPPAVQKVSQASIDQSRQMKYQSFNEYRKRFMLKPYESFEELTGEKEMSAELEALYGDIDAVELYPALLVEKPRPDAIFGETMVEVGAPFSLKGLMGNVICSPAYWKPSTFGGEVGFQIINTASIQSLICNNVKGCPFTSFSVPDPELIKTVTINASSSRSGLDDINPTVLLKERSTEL
Experimental: (§1) Method for Measuring Inhibitory Activity Against Human COX-1 and COX-2 Using Peripheral Blood
(§2) 1 μl of a solution of the compound of the present invention in DMSO was added to 500 μl of peripheral blood collected from a healthy volunteer.
In the case of measuring COX-2 activity, LPS (E. coli 026:B6) was added onto blood to which the compound has been added to a concentration of 10 μg/ml followed by incubating at 37° C. for 5 hours and transferring onto ice to stop the reaction.

[2] = molecular target: T2, Human COX-1 (Homo sapiens, UniProt P23219); test: Inhibitory activity against human COX-1 using peripheral blood (calcium ionophore A23187, thromboxane B2 EIA); type: cell-based; settings: 37° C. 4.5 hours then A23187 500 μM 30 minutes
T2 construct: 500 μl of peripheral blood collected from a healthy volunteer; endogenous in cells; host or cells: human whole peripheral blood from a healthy volunteer, stimulated with calcium ionophore A23187
Experimental: as §1, §2
In the case of measuring COX-1 activity, after incubating at 37° C. for 4.5 hours, calcium ionophore A23187 was added to a final concentration of 500 μM followed by additional incubation at 37° C. for 30 minutes and transferring to ice to stop the reaction.

T2 sequence (P23219 24-599): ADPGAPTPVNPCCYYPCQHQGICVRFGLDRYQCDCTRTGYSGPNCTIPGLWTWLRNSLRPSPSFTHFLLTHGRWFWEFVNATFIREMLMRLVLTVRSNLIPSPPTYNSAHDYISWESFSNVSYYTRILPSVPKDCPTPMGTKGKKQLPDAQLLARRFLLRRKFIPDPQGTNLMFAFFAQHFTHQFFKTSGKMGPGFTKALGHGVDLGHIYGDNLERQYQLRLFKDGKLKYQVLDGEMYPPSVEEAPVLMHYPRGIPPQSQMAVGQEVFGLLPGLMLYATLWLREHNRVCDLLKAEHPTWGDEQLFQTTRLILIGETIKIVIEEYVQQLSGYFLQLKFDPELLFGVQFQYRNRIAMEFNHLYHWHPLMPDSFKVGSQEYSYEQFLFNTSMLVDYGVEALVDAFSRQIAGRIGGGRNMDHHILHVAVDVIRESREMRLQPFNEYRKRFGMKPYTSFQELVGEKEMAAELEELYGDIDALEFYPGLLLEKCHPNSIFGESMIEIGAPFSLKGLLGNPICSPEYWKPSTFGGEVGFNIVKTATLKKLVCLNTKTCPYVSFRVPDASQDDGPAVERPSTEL

Row | SMILES | melting point [°C] | IC50 [1] [nM] | IC50 [2] [nM]
1 | CS(=O)(=O)c1cnc2c(c1)cc(-c1ncco1)n2Cc1ccc(F)cc1 [Example 3, 1-(4-Fluorobenzyl)-2-(oxazol-2-yl)-5-methanesulfonyl-1H-pyrrolo[2,3-b]pyridine] | 200 to 201 | 300 | > 20000
2 | CS(=O)(=O)c1ccc2c(c1)cc(-c1nccs1)n2Cc1ccc(F)cc1 [Example 2, 1-(4-Fluorobenzyl)-5-methanesulfonyl-2-(thiazol-2-yl)indole] |  | 500 | > 20000
3 | CS(=O)(=O)c1ccc2c(c1)cc(-c1nnco1)n2Cc1ccc(F)cc1 [Example 4, 1-(4-Fluorobenzyl)-5-methanesulfonyl-2-([1,3,4]oxadiazol-2-yl)indole] |  | 4000 | > 20000
4 | CS(=O)(=O)c1cnc2c(c1)cc(-c1ccco1)n2Cc1ccccn1 [Example 10, 2-(2-Furanyl)-5-methanesulfonyl-1-(2-pyridylmethyl)-1H-pyrrolo[2,3-b]pyridine] |  | 1500 | > 20000
5 | CS(=O)(=O)c1ccc2c(c1)cc(C1=CCOCC1)n2Cc1ccc(F)cc1 [Example 14, 2-(5,6-Dihydro-2H-4-pyranyl)-1-(4-fluorobenzyl)-5-methanesulfonyl-indole] |  | 100 | > 20000
6 | CS(=O)(=O)c1cnc2c(c1)cc(-c1nnco1)n2Cc1ccc(F)cc1 [Example 33, 1-(4-Fluorobenzyl)-5-methanesulfonyl-2-([1,3,4]oxadiazol-2-yl)-1H-pyrrolo[2,3-b]pyridine] |  | 200 | > 20000
7 | CS(=O)(=O)c1ccc2c(c1)cc(-c1ccco1)n2CC1CCCCC1 [Example 9, 1-Cyclohexylmethyl-2-(2-furanyl)-5-methanesulfonylindole] |  | 2000 | > 20000
8 | CS(=O)(=O)c1ccc2c(c1)cc(-c1ccco1)n2Cc1ccc(F)cc1 [Example 8, 2-(2-Furanyl)-1-(4-fluorobenzyl)-5-methanesulfonyl-1H-indole] |  | 800 | > 20000
9 | CS(=O)(=O)c1cnc2c(c1)cc(-c1ncccn1)n2CC1CCCCC1 [Example 7, 1-Cyclohexylmethyl-5-methanesulfonyl-2-(2-pyrimidinyl)-1H-pyrrolo[2,3-b]pyridine] |  | 1500 | > 20000
10 | CS(=O)(=O)c1ccc2c(c1)cc(C1CCCO1)n2Cc1ccc(F)cc1 (stereo not shown) [Example 13, 2-(2-Tetrahydrofuranyl)-1-(4-fluorobenzyl)-5-methanesulfonyl-indole] |  | 4000 | > 10000
11 | CS(=O)(=O)c1cnc2c(c1)cc(-c1ccco1)n2CC1CCCCC1 [Example 12, 2-(2-Furanyl)-1-cyclohexylmethyl-5-methanesulfonyl-1H-pyrrolo[2,3-b]pyridine] |  | 150 | > 20000
12 | CNC(=O)c1ccc(-c2cc3cc(S(C)(=O)=O)ccc3n2Cc2ccc(F)cc2)nc1 [Example 17, 1-(4-Fluorobenzyl)-5-methanesulfonyl-2-(5-methylaminocarbonylpyridin-2-yl)indole] |  | 800 | > 20000
13 | CS(=O)(=O)c1cnc2c(c1)cc(-c1ccccn1)n2Cc1ccc(F)cc1 [Example 5, 5-Methanesulfonyl-2-(2-pyridyl)-1-(4-fluorobenzyl)-1H-pyrrolo[2,3-b]pyridine] |  | 400 | > 20000
14 | CS(=O)(=O)c1cnc2c(c1)cc(-c1ccco1)n2Cc1ccc(F)cc1 [Example 1, 2-(2-Furyl)-1-(4-fluorobenzyl)-5-methanesulfonyl-1H-pyrrolo[2,3-b]pyridine] |  | 150 | > 20000
15 | Cc1ccc(-c2cc3cc(S(C)(=O)=O)cnc3n2Cc2ccc(F)cc2)o1 [Example 11, 1-(4-Fluorobenzyl)-5-methanesulfonyl-2-(5-methylfuran-2-yl)-1H-pyrrolo[2,3-b]pyridine] |  | 200 | > 20000
